# Test results: patent US12559474B2, “Triazine derivatives having virus replication inhibitory activity and pharmaceutical composition comprising the same” (priority 2021, dated 2026)
# Read-outs that look alike come from different tables or passages of the source.
# Assays:
# SARS-CoV-2 3CL protease = SARS-CoV-2 3CL protease (Severe acute respiratory syndrome coronavirus 2, UniProt P0DTD1); experiment: biochemical
# SARS-CoV-2 = experiment: microbe, parasite or virus in culture; type: cell-based; settings: for EC50: Severe acute respiratory syndrome coronavirus 2, VeroE6/TMPRSS2, 72 h, 50% SARS-CoV-2 infected cell death inhibitory concentration, VeroE6/TMPRSS2 cells, 3 days culture; for coronavirus replication inhibitory activity: at concentrations up to 50 μM, tested as in Test Example 1 (Reference Example 1)
# [1] = 50% SARS-CoV-2 3CL protease inhibitory concentration, given as class symbols, read-out: IC50
# [2] = 50% SARS-CoV-2 3CL protease inhibitory concentration, RapidFire MS, read-out: IC50
SMILES,IC50 (SARS-CoV-2 3CL protease; [1]) [nM],EC50 (SARS-CoV-2; class symbols) [nM],further results
O=c1[nH]cc(Cl)cc1Cn1c(=O)nc(Nc2cc3cn(CCO)nc3cc2Cl)n(Cc2cc(F)c(F)c(F)c2)c1=O [Compound I-0079],< 100,1000 to 10000,–
COc1ccc(Nc2nc(=O)n(Cc3cc4ccsc4[nH]c3=O)c(=O)n2Cc2cc(F)c(F)c(F)c2)cc1 [Compound I-0081],< 100,< 1000,–
COc1ccc(Nc2nc(=O)n(Cc3cc4cccnc4[nH]c3=O)c(=O)n2Cc2cc(F)c(F)c(F)c2)cc1 [Compound I-0084],< 100,1000 to 10000,–
COc1cc(Cl)c(Nc2nc(=O)n(Cc3ccc[nH]c3=O)c(=O)n2Cc2cc(F)c(F)c(F)c2)c(OC)c1 [Compound I-0094],< 100,1000 to 10000,–
O=c1[nH]cccc1Cn1c(=O)nc(Nc2ccc(OCC(F)F)cc2Cl)n(Cc2cc(F)c(F)c(F)c2)c1=O [Compound I-0095],< 100,1000 to 10000,–
COc1ccc(Nc2nc(=O)n(Cc3cc4cc(OC)ccc4[nH]c3=O)c(=O)n2Cc2cc(F)c(F)c(F)c2)cc1 [Compound I-0100],< 100,1000 to 10000,–
Cn1cc2cc(Nc3nc(=O)n(Cc4cc5ccsc5[nH]c4=O)c(=O)n3Cc3cc(F)c(F)c(F)c3)c(Cl)cc2n1 [Compound I-0110],–,–,IC50 (SARS-CoV-2 3CL protease; [2]): 4.2 nM; EC50 (SARS-CoV-2; CellTiter-Glo 2.0): 321 nM
Cn1cc2cc(Nc3nc(=O)n(Cc4cn(C)c(=O)[nH]c4=O)c(=O)n3Cc3cc(F)c(F)c(F)c3)c(Cl)cc2n1 [Compound I-0111],< 100,1000 to 10000,–
Cc1cncc(-n2c(=O)nc(Nc3cc4cn(C)nc4cc3F)n(Cc3cc(F)c(F)c(F)c3)c2=O)c1 [Compound I-0112],< 100,< 1000,–
Cc1cncc(-n2c(=O)[nH]/c(=N\c3cc4cn(C)nc4cc3Cl)n(Cc3cc(F)c(F)c(F)c3)c2=O)c1 [Compound I-0113],–,–,EC50 (SARS-CoV-2; CellTiter-Glo 2.0): 177 nM
Cc1cncc(-n2c(=O)nc(Nc3cc4cn(C)nc4cc3C)n(Cc3cc(F)c(F)c(F)c3)c2=O)c1 [Compound I-0114],< 100,1000 to 10000,–
Cc1nc2cc(C)c(Nc3nc(=O)n(Cc4ccc[nH]c4=O)c(=O)n3Cc3cc(F)c(F)c(F)c3)cc2s1 [Compound I-0116],< 100,1000 to 10000,–
COc1ccc(Oc2nc(=O)n(Cc3ccc[nH]c3=O)c(=O)n2Cc2cc(F)c(F)c(F)c2)c(C)c1 [Compound I-0128],–,< 1000,IC50 (SARS-CoV-2 3CL protease; [2]): 9700 nM
COc1ccc(Nc2nc(=O)n(Cc3ccc[nH]c3=O)c(=O)n2Cc2cc(F)c(F)c(F)c2)c(C)c1 [Compound I-0129],< 100,1000 to 10000,–
O=c1[nH]cccc1Cn1c(=O)nc(NC2CCOCC2)n(Cc2cc(F)c(F)c(F)c2)c1=O [Compound I-0132],1000 to 10000,< 1000,IC50 (SARS-CoV-2 3CL protease; [2]): 2300 nM
COc1ccc(Nc2nc(=O)n(Cc3ccc[nH]c3=O)c(=O)n2CC2CCCCC2)cc1 [Compound I-0134],1000 to 10000,< 1000,IC50 (SARS-CoV-2 3CL protease; [2]): 4000 nM
Cc1cncc(-n2c(=O)nc(Nc3cc4cn(C)nc4cc3Cl)n(Cc3cc(F)c(F)cc3F)c2=O)c1 [Compound I-0361],–,–,EC50 (SARS-CoV-2; CellTiter-Glo 2.0): 131 nM
"O=C(O)c1ccc(Oc2ccc(/N=c3\[nH]c(=O)n(-c4cccs4)c(=O)n3Cc3ccc(Cl)cc3)cc2)nc1 [Compound I-575, reference compound]",–,–,coronavirus replication inhibitory activity (SARS-CoV-2): did not show coronavirus replication inhibitory activity
"O=C(O)c1ccc(Oc2ccc(/N=c3\[nH]c(=O)n(-c4ccon4)c(=O)n3Cc3ccc(Cl)cc3)cc2)nc1 [Compound I-580, reference compound]",–,–,coronavirus replication inhibitory activity (SARS-CoV-2): did not show coronavirus replication inhibitory activity
"CC(C)Oc1ccc(/N=c2\[nH]c(=O)n(Cc3ncn[nH]3)c(=O)n2Cc2ccc(Cl)cc2)cc1F [Compound I-0679, reference compound]",–,–,coronavirus replication inhibitory activity (SARS-CoV-2): did not show coronavirus replication inhibitory activity
"COc1ncccc1Cn1c(=O)[nH]/c(=N\c2ccc(OC(C)C)c(F)c2)n(Cc2ccc(Cl)cc2)c1=O [Compound I-0683, reference compound]",–,–,coronavirus replication inhibitory activity (SARS-CoV-2): did not show coronavirus replication inhibitory activity
"CC(C)Oc1ccc(/N=c2\[nH]c(=O)n(Cc3ccc[nH]c3=O)c(=O)n2Cc2ccc(Cl)cc2)cc1F [Compound I-0685, reference compound]",–,–,coronavirus replication inhibitory activity (SARS-CoV-2): did not show coronavirus replication inhibitory activity
"Cc1nc2ccc(/N=c3\[nH]c(=O)n(C[C@H]4COC(C)(C)O4)c(=O)n3Cc3ccc(Cl)cc3)cc2s1 [Compound I-1603, reference compound]",–,–,coronavirus replication inhibitory activity (SARS-CoV-2): did not show coronavirus replication inhibitory activity
Cn1cnc(Cn2c(=O)nc(Nc3cc4cn(C)nc4cc3Cl)n(Cc3cc(F)ccc3F)c2=O)n1 [II-0208],–,1000 to 10000,–
CNc1nc2ccc(Nc3nc(=O)n(-c4cncc(Cl)c4)c(=O)n3Cc3ccc(F)c(C#N)c3)cc2s1 [II-0399],–,< 1000,–
COc1ccc(Nc2nc(=O)n(Cc3ncn(C)n3)c(=O)n2C2(c3ccc(F)c(F)c3)CC2)cc1 [II-0644],–,–,IC50 (SARS-CoV-2 3CL protease; IC50): 3500 nM
